Data as given in patent publication US20260334439A1, “BCAT2 INHIBITORS” (Agios Pharmaceuticals, Inc., priority 2023, published 2026).

Assays:
[1] = target: T1, BCAT2 (Homo sapiens, UniProt O15382); assay: BCAT2 in vitro enzyme inhibition assay (hBCAT2, glutamate dehydrogenase/diaphorase/resazurin coupled fluorescence read); format: biochemical; settings: hBCAT2, 1 h preincubation at 25° C., one hour reaction; average where tested multiple times
T1 sequence (O15382 28-392): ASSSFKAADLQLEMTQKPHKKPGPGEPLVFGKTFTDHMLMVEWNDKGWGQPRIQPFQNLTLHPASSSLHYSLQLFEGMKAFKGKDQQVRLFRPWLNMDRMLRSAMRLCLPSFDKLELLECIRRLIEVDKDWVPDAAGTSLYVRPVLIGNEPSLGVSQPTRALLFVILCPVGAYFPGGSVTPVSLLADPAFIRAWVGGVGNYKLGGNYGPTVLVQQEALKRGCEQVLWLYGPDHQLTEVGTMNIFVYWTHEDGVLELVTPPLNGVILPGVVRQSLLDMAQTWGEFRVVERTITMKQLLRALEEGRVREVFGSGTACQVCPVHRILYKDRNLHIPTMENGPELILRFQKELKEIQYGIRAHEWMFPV
Summary of the method: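 Coupled GDH/diaphorase/resazurin fluorescence (Ex 540/Em 590) read after 1 h reaction at 25 °C, SDS-stopped; enzyme (0.33 μg/mL in mix) first preincubated 1 h with compound, 10-point 3-fold series from 100 μM final, Tris pH 8.0 buffer with NaCl, BSA; technical duplicates, averaged across tests.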

[2] = target: T1, BCAT2; assay: BCAT2 cell inhibition using engineered A549 cells (MUT KO, BCAT1 KO; 13C6-KMV formation by LC-MS/MS); format: cell-based; parameters: expressed endogenous BCAT2; endogenous in cells; host or cells: A549 cells, MUT knockout and BCAT1 knockout
Description: Endogenous Methylmalonyl-CoA Mutase (MUT) and Branched Chain Aminotransferase 1 (BCAT1) in A549 cells was knocked out by CRISPR/CAS9 using the targeting system from TransOMIC Technologies. The following guide sequence was cloned into pCLIP-ALL-EFS-Blast vector to target human MUT: […] (SEQ ID NO: 35). The following guide sequence was cloned into pCLIP-ALL-EFS-Puro vector to target human BCAT1: […] (SEQ ID NO: 36). The resulting plasmids were co-transfected into 293T cells with VSV-G, P-PEX, and Fugene-6. Lentivirus was harvested and A549 cells were first transduced with lentivirus targeting MUT and polybrene. After genetic selection with blasticidin clonal selection was performed and validated via western blot analysis to confirm MUT was no longer expressed. These MUT KO cells were then transduced with lentivirus targeting BCAT1 and polybrene. After selection with puromycin clonal selection was performed and clones were validated via western blot analysis to confirm BCAT1 was no longer expressed in these cells. The result was an engineered A549 cell line that expressed endogenous BCAT2.
For KMV cell assays, on day 1, 25,000 cells/100 μL EMEM (10% FBS) were seeded in each well of a 96-well plate. On day 2, medium was replaced with 50 μL fresh EMEM (10% dialyzed FBS) containing 2× the assay concentration of experimental compound. After 15 minutes, 50 μL of 800 uM ^15N,^13C6-Isoleucine in EMEM (10% dialyzed FBS) was added to each well and incubated for 24 hours. On day 3, 50 μL of media from each well was collected and transferred to another 96-well plate for ^13C6-3-Methyl-2-Oxopentanoic Acid (KMV) analysis via LC-MS/MS. In the remaining assay wells 50 μL of Promega Glo CTG reagent was added and luminescence was measured as a cell viability readout.
For LC-MS/MS analysis 5 μL of cell assay media from each well was transferred to a 96-well plate and 45 μL of ACN:0.1% NaOH (50:50, v/v)^+0.20 nM d8-KMV was added and mixed on a shaker. 15 μL was transferred to a new 96-well plate and 15 μL of 10 mg/mL PFBHA solution was added and mixed on the shaker. The reaction was placed on ice for 30 minutes and quenched with 10 μL of ACN: Acetone (50:50, v/v) on a shaker. The resulting mixture was diluted with 100 μL of ACN:0.1% NaOH (50:50, v/v) on a shaker. 10 μL of sample were injected on the Shimadzu 20AD LC-MS/MS to quantify ^13C6-KMV.
Where a compound was tested multiple times, the average value of the tests is reported.

Row | Structure (SMILES) | IC50 [1] | IC50 [2] | IC50 ([2]; read-out: BCAT2 Cell Inhibition (IC50), engineered A549 cells, 24 hours, 13C6-KMV in media, average where tested multiple times)
1 | COc1ccc(Cl)cc1C(=O)N[C@@H]1C[C@H](n2c(-c3ccccc3F)nc3cnc(-c4nc[nH]n4)cc32)CN(C)C1 [Example 136, 5-chloro-N-((3R,5S)-5-(2-(2-fluorophenyl)-6-(1H-1,2,4-triazol-3-yl)-1H-imidazo[4,5-c]pyridin-1-yl)-1-methylpiperidin-3-yl)-2-methoxybenzamide] | < 100 nM | 100 to 500 nM | –
2 | O=C1c2cc(F)ccc2CN1[C@H]1CCC[C@@H](n2c(-c3ccccc3OC(F)F)nc3ccc(-c4nc[nH]n4)c(F)c32)C1 [compound 238] | < 100 nM | < 100 nM | –
3 | O=C1c2ccc(F)cc2CN1[C@H]1CCC[C@@H](n2c(-c3ccccc3F)nc3cnc(-c4nc[nH]n4)cc32)C1 [Example 176, 5-fluoro-2-((1S,3R)-3-(2-(2-fluorophenyl)-6-(1H-1,2,4-triazol-3-yl)-1H-imidazo[4,5-c]pyridin-1-yl)cyclohexyl)isoindolin-1-one] | < 100 nM | 100 to 500 nM | –
4 | CN1C[C@H](NC(=O)c2cc(F)ccc2F)C[C@H](n2c(-c3ccccc3F)nc3cnc(-c4nc[nH]n4)cc32)C1 [Example 153, 2,5-difluoro-N-((3R,5S)-5-(2-(2-fluorophenyl)-6-(1H-1,2,4-triazol-3-yl)-1H-imidazo[4,5-c]pyridin-1-yl)-1-methylpiperidin-3-yl)benzamide] | < 100 nM | 100 to 500 nM | –
5 | O=C(N[C@H]1CCC[C@@H](n2c(-c3ncccc3F)nc3cnc(-c4nc[nH]n4)cc32)C1)c1cc(Cl)ccn1 [Example 15, 4-chloro-N-((1S,3R)-3-(2-(3-fluoropyridin-2-yl)-6-(1H-1,2,4-triazol-3-yl)-1H-imidazo[4,5-c]pyridin-1-yl)cyclohexyl)picolinamide] | < 100 nM | < 100 nM | –
6 | O=C1c2cc(Cl)ccc2CN1[C@H]1CCC[C@@H](n2c(-c3ccccc3OCCO)nc3cnc(-c4nc[nH]n4)cc32)C1 [Example 172, 6-chloro-2-((1S,3R)-3-(2-(2-(2-hydroxyethoxy)phenyl)-6-(1H-1,2,4-triazol-3-yl)-1H-imidazo[4,5-c]pyridin-1-yl)cyclohexyl)isoindolin-1-one] | < 100 nM | < 100 nM | –
7 | O=C(N[C@H]1CCC[C@@H](n2c(-c3ccccn3)nc3cnc(-c4nc[nH]n4)cc32)C1)c1cc(Cl)ccn1 [Example 25, 4-chloro-N-((1S,3R)-3-(2-(pyridin-2-yl)-6-(1H-1,2,4-triazol-3-yl)-1H-imidazo[4,5-c]pyridin-1-yl)cyclohexyl)picolinamide] | < 100 nM | 100 to 500 nM | –
8 | O=C(N[C@H]1CCC[C@@H](n2c(-c3ccccc3F)nc3cnc(-c4nc[nH]n4)cc32)C1)c1cc(F)ccn1 [Example 14, 4-fluoro-N-((1S,3R)-3-(2-(2-fluorophenyl)-6-(1H-1,2,4-triazol-3-yl)-1H-imidazo[4,5-c]pyridin-1-yl)cyclohexyl)picolinamide] | < 100 nM | < 100 nM | –
9 | CN1C[C@H](N2Cc3ccc(F)cc3C2=O)C[C@H](n2c(-c3ccccc3OCCO)nc3ccc(-c4ncccn4)cc32)C1 [Example 243, 6-fluoro-2-((3R,5S)-5-(2-(2-(2-hydroxyethoxy)phenyl)-6-(pyrimidin-2-yl)-1H-benzo[d]imidazol-1-yl)-1-methylpiper-idin-3-yl)isoindolin-1-one] | < 100 nM | 100 to 500 nM | –
10 | CC(C)Cc1nc2cnc(-n3nccn3)cc2n1[C@@H]1CCC[C@H](NC(=O)c2cc(Cl)ccc2OCCO)C1 [Example 57, 5-chloro-2-(2-hydroxyethoxy)-N-((1S,3R)-3-(2-isobutyl-6-(2H-1,2,3-triazol-2-yl)-1H-imidazo[4,5-c]pyridin-1-yl)cyclohexyl)benzamide] | < 100 nM | 500 to 1000 nM | –
11 | O=C1c2cc(F)ccc2CN1[C@H]1CCC[C@@H](n2c(-c3c(F)cccc3OC(F)F)nc3cnc(-c4nc[nH]n4)cc32)[C@@H]1O [compound 189] | < 100 nM | < 100 nM | –
12 | O=C(N[C@H]1CCC[C@@H](n2c(-c3ccccc3F)nc3ccc(-c4nc[nH]n4)cc32)[C@@H]1O)c1cc(Cl)ccn1 [Example 218, 4-chloro-N-((1S,2R,3R)-3-(2-(2-fluorophenyl)-6-(1H-1,2,4-triazol-3-yl)-1H-benzo[d]imid-azol-1-yl)-2-hydroxycyclohex-yl)picolinamide] | < 100 nM | 100 to 500 nM | –
13 | O=C(N[C@H]1CCC[C@@H](n2c(-c3ccccc3F)nc3cnc(-c4nc[nH]n4)cc32)C1)c1cc(Cl)ccc1OC1CCOC1 (stereo partly drawn) [Example 83, 5-chloro-N-((1S,3R)-3-(2-(2-fluorophenyl)-6-(1H-1,2,4-triazol-3-yl)-1H-imidazo[4,5-c]pyridin-1-yl)cyclohexyl)-2-((tetrahydrofuran-3-yl)oxy)benzamide] | < 100 nM | < 100 nM | –
14 | O=C1c2ccccc2CN1[C@H]1CCC[C@@H](n2c(-c3ccccc3F)nc3cnc(-c4nc[nH]n4)cc32)C1 [Example 174, 2-((1S,3R)-3-(2-(2-fluorophenyl)-6-(1H-1,2,4-triazol-3-yl)-1H-imidazo[4,5-c]pyridin-1-yl)cyclohexyl)isoindolin-1-one] | < 100 nM | < 100 nM | –
15 | CCOc1ccc(Cl)cc1C(=O)N[C@H]1CCC[C@@H](n2c(-c3ccccn3)nc3cnc(-c4nc[nH]n4)cc32)C1 [Example 26, 5-chloro-2-ethoxy-N-((1S,3R)-3-(2-(pyridin-2-yl)-6-(1H-1,2,4-triazol-3-yl)-1H-imidazo[4,5-c]pyridin-1-yl)cyclohexyl)benzamide] | < 100 nM | 100 to 500 nM | –
16 | O=C1c2cc(Cl)ccc2OCN1[C@H]1CCC[C@@H](n2c(-c3ccccc3F)nc3cnc(-c4nc[nH]n4)cc32)C1 [Example 202, 6-chloro-3-((1S,3R)-3-(2-(2-fluorophenyl)-6-(1H-1,2,4-triazol-3-yl)-1H-imidazo[4,5-c]pyridin-1-yl)cyclohexyl)-2,3-dihydro-4H-benzo[e][1,3]oxazin-4-one] | < 100 nM | < 100 nM | –
17 | N#Cc1ccccc1-c1nc2ccc(-c3ncccn3)cc2n1[C@@H]1CCC[C@H](N2Cc3ccc(F)cc3C2=O)C1 [Example 239, 2-(1-((1R,3S)-3-(6-fluoro-1-oxoisoindolin-2-yl)cyclohexyl)-6-(pyrimidin-2-yl)-1H-benzo[d]imidazol-2-yl)benzonitrile] | < 100 nM | < 100 nM | –
18 | COc1ccc(Cl)cc1C(=O)N[C@H]1C[C@H](OC)C[C@@H](n2c(-c3ccccc3F)nc3cnc(-c4nc[nH]n4)cc32)C1 [Example 106, 5-chloro-N-((1R,3S,5S)-3-(2-(2-fluorophenyl)-6-(1H-1,2,4-triazol-3-yl)-1H-imidazo[4,5-c]pyridin-1-yl)-5-methoxycyclohexyl)-2-methoxybenzamide] | < 100 nM | < 100 nM | –
19 | CCN(C)Cc1nc2cnc(-c3nc[nH]n3)cc2n1[C@@H]1CCC[C@H](NC(=O)c2cc(Cl)ccn2)C1 [Example 24, 4-chloro-N-((1S,3R)-3-(2-((ethyl(methyl)amino)methyl)-6-(1H-1,2,4-triazol-3-yl)-1H-imidazo[4,5-c]pyridin-1-yl)cyclohexyl)picolinamide] | 500 to 1000 nM | – | > 1000 nM
20 | O=C(N[C@H]1CCC[C@@H](n2c(-c3ccccc3F)nc3cnc(-c4nc[nH]n4)cc32)C1)c1ccc(F)cn1 [Example 19, 5-fluoro-N-((1S,3R)-3-(2-(2-fluorophenyl)-6-(1H-1,2,4-triazol-3-yl)-1H-imidazo[4,5-c]pyridin-1-yl)cyclohexyl)picolinamide] | < 100 nM | 100 to 500 nM | –
